Experimental data: ChEMBL document CHEMBL5131538 (J Med Chem, 2022)

Test system: Rattus norvegicus
Assay: Organ protective activity in aldosterone-induced uninephrectomized Sprague-Dawley rat model assessed as myocardial fibrosis in heart by measuring pathological lesion score at 10 mg/kg/day by sirius red and H and E staining based histological analysis (reference value: 1.6 +/- 0.3)
Type: functional

CC1(C)Oc2cc(NS(C)(=O)=O)ccc2N(c2ccc(F)cc2)C1=O [MT-3995]
Activity: 0
